# Biological target: ROCK2 (Homo sapiens, UniProt O75116)
# Experiment: ROCK2 kinase inhibition assay (LABCHIP 3000 Reader, FITC peptide substrate);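 further: rho kinase reaction read by separating phosphorylated from unphosphorylated peptide on chip, with inhibition of kinase activity computed per concentration across a dose-response series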
# Sequence of ROCK2 (O75116 whole entry, species assumed): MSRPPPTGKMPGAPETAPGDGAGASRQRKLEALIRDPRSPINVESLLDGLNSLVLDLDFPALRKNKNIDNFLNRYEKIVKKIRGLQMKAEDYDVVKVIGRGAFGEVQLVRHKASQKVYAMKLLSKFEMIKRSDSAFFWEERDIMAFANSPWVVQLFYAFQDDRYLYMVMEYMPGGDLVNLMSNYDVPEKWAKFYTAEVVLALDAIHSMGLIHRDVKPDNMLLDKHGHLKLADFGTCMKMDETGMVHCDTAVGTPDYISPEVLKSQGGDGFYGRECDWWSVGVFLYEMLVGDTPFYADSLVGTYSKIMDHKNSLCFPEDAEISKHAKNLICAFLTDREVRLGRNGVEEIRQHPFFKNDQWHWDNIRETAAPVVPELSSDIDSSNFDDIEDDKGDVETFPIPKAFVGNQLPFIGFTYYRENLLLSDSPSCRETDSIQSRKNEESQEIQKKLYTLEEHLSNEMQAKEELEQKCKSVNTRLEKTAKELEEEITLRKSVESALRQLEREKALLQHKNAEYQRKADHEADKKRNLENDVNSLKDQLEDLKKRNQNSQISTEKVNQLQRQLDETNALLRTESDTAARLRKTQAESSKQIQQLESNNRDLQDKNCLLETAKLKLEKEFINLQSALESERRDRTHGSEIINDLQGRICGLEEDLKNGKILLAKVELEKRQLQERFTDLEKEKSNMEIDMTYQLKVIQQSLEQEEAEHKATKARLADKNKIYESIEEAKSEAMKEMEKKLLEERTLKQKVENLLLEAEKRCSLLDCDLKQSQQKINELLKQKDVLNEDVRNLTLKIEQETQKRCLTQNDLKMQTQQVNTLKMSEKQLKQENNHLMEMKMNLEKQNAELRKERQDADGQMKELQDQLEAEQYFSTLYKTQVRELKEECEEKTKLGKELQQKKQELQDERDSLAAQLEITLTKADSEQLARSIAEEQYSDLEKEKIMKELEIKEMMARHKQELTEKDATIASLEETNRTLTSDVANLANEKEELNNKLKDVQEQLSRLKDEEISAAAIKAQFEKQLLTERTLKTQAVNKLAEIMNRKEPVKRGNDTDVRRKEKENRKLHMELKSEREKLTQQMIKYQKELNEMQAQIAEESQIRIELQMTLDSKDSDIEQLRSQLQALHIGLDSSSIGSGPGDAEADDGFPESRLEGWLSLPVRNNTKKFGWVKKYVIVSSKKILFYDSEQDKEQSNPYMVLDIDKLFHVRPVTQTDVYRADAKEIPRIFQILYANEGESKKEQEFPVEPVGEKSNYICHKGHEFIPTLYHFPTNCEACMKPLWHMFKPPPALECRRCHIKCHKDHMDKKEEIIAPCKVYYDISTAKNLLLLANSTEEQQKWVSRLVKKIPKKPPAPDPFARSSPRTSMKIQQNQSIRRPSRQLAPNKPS
row,Structure (SMILES),IC50
1,"[H][C@]1(Oc2ncccc2C(N)=O)C[C@@]2(C[C@H](NC(=O)c3cnc4cc(N5CC(N)C5)ccn34)C2)C1 (stereo partly drawn) [Example 359, 7-(3-aminoazetidin-1-yl)-N-((aR)-6-((3-carbamoylpyridin-2-yl)oxy)spiro[3.3]heptan-2-yl)imidazo[1,2-a]pyridine-3-carboxamide]",50 to 250 nM
2,"NC(=O)c1cccnc1O[C@H]1CC2(C[C@H](NC(=O)c3cnc4cc(OC5CC(F)(F)C5)ccn34)C2)C1 (stereo partly drawn) [Example 360, N-((aR)-6-((3-carbamoylpyridin-2-yl)oxy)spiro[3.3]heptan-2-yl)-7-(3,3-difluorocyclobutoxy)imidazo[1,2-a]pyridine-3-carboxamide]",5 to 50 nM
3,"[H][C@]1(Oc2ncccc2C(N)=O)C[C@@]2(C[C@H](NC(=O)c3cnc4cc(Cl)ccn34)C2)C1 (stereo partly drawn) [Example 361, N-((aR)-6-((3-carbamoylpyridin-2-yl)oxy)spiro[3.3]heptan-2-yl)-7-chloroimidazo[1,2-a]pyridine-3-carboxamide]",50 to 250 nM
4,"NC(=O)c1cccnc1O[C@H]1CC2(C[C@H](NC(=O)c3cnc4cc(N5CCS(=O)(=O)CC5)ccn34)C2)C1 (stereo partly drawn) [Example 362, N-((aR)-6-((3-carbamoylpyridin-2-yl)oxy)spiro[3.3]heptan-2-yl)-7-(1,1-dioxidothiomorpholino)imidazo[1,2-a]pyridine-3-carboxamide]",50 to 250 nM
5,"[2H]C([2H])([2H])n1cc(-c2ccc3c(C(=O)N[C@H]4CC5(C4)C[C@H](Oc4ncccc4C(N)=O)C5)nnn3c2)cn1 (stereo partly drawn) [Example 363, N-((aR)-6-((3-carbamoylpyridin-2-yl)oxy)spiro[3.3]heptan-2-yl)-6-(1-(^2H3)methyl-1H-pyrazol-4-yl)-[1,2,3]triazolo[1,5-a]pyridine-3-carboxamide]",< 5 nM
6,"NC(=O)c1cccnc1O[C@H]1CC2(C[C@H](NC(=O)c3nnn4cc(-c5cnn(C6CC6)c5)ccc34)C2)C1 (stereo partly drawn) [Example 364, N-((aR)-6-((3-carbamoylpyridin-2-yl)oxy)spiro[3.3]heptan-2-yl)-6-(1-cyclopropyl-1H-pyrazol-4-yl)-[1,2,3]triazolo[1,5-a]pyridine-3-carboxamide]",< 5 nM
7,"CC(C)(O)Cn1cc(-c2ccc3c(C(=O)N[C@H]4CC5(C4)C[C@H](Oc4ncccc4C(N)=O)C5)nnn3c2)cn1 (stereo partly drawn) [Example 365, N-((aR)-6-((3-carbamoylpyridin-2-yl)oxy)spiro[3.3]heptan-2-yl)-6-(1-(2-hydroxy-2-methylpropyl)-1H-pyrazol-4-yl)-[1,2,3]triazolo[1,5-a]pyridine-3-carboxamide]",5 to 50 nM
8,"CC(C)n1cc(-c2ccc3c(C(=O)N[C@H]4CC5(C4)C[C@H](Oc4ncccc4C(N)=O)C5)nnn3c2)c(C(F)(F)F)n1 (stereo partly drawn) [Example 366, N-((aR)-6-((3-carbamoylpyridin-2-yl)oxy)spiro[3.3]heptan-2-yl)-6-(1-isopropyl-3-(trifluoromethyl)-1H-pyrazol-4-yl)-[1,2,3]triazolo[1,5-a]pyridine-3-carboxamide]",5 to 50 nM
9,"Cn1cc(-c2ccc3c(C(=O)N[C@H]4CC5(C4)C[C@H](Oc4ncccc4C(N)=O)C5)nnn3c2)cn1 (stereo partly drawn) [Example 367, N-((aR)-6-((3-carbamoylpyridin-2-yl)oxy)spiro[3.3]heptan-2-yl)-6-(1-methyl-1H-pyrazol-4-yl)-[1,2,3]triazolo[1,5-a]pyridine-3-carboxamide]",< 5 nM

# Continued, values first:
row,IC50,Structure (SMILES)
1,5 to 50 nM,"[H][C@]1(Oc2ncccc2C(N)=O)C[C@@]2(C[C@H](NC(=O)c3nnn4cc(Br)ccc34)C2)C1 (stereo partly drawn) [Example 368, 6-bromo-N-((aR)-6-((3-carbamoylpyridin-2-yl)oxy)spiro[3.3]heptan-2-yl)-[1,2,3]triazolo[1,5-a]pyridine-3-carboxamide]"
2,250 to 2500 nM,"[H][C@]1(Oc2ncccc2C(N)=O)C[C@@]2(C[C@H](NC(=O)c3nnn4cc(N5CCOCC5)ccc34)C2)C1 (stereo partly drawn) [Example 369, N-((aR)-6-((3-carbamoylpyridin-2-yl)oxy)spiro[3.3]heptan-2-yl)-6-morpholino-[1,2,3]triazolo[1,5-a]pyridine-3-carboxamide]"
3,< 5 nM,"[H][C@]1(Oc2ncccc2C(N)=O)C[C@@]2(C[C@H](NC(=O)c3cnc4cc(-c5ccc(=O)n(C)c5)ccn34)C2)C1 (stereo partly drawn) [Example 370, N-((aR)-6-((3-carbamoylpyridin-2-yl)oxy)spiro[3.3]heptan-2-yl)-7-(1-methyl-6-oxo-1,6-dihydropyridin-3-yl)imidazo[1,2-a]pyridine-3-carboxamide]"
4,5 to 50 nM,"[H][C@]1(Oc2ncccc2C(N)=O)C[C@@]2(C[C@H](NC(=O)c3cnn4cc(-c5ccc(=O)n(C)c5)ccc34)C2)C1 (stereo partly drawn) [Example 371, N-((aR)-6-((3-carbamoylpyridin-2-yl)oxy)spiro[3.3]heptan-2-yl)-6-(1-methyl-6-oxo-1,6-dihydropyridin-3-yl)pyrazolo[1,5-a]pyridine-3-carboxamide]"
5,< 5 nM,"[H][C@]1(Oc2ncccc2C(N)=O)C[C@@]2(C[C@H](NC(=O)c3nn(C(F)F)c4cc(N5CCOCC5)ccc34)C2)C1 (stereo partly drawn) [Example 372, N-((aR)-6-((3-carbamoylpyridin-2-yl)oxy)spiro[3.3]heptan-2-yl)-1-(difluoromethyl)-6-morpholino-1H-indazole-3-carboxamide]"
6,250 to 2500 nM,"[H][C@]1(Oc2ncccc2C(N)=O)C[C@@]2(C[C@H](NC(=O)c3nnn4c(Cl)c(OCc5ccccc5)ccc34)C2)C1 (stereo partly drawn) [Example 373, 6-(benzyloxy)-N-((aR)-6-((3-carbamoylpyridin-2-yl)oxy)spiro[3.3]heptan-2-yl)-7-chloro-[1,2,3]triazolo[1,5-a]pyridine-3-carboxamide]"
7,50 to 250 nM,"[H][C@]1(Oc2ncccc2C(N)=O)C[C@@]2(C[C@H](NC(=O)c3nnn4c(C5CC5)c(OCc5ccccc5)ccc34)C2)C1 (stereo partly drawn) [Example 374, 6-(benzyloxy)-N-((aR)-6-((3-carbamoylpyridin-2-yl)oxy)spiro[3.3]heptan-2-yl)-7-cyclopropyl-[1,2,3]triazolo[1,5-a]pyridine-3-carboxamide]"
8,50 to 250 nM,"[H][C@]1(Oc2ncccc2C(N)=O)C[C@@]2(C[C@H](NC(=O)c3nnn4cc(OCC(C)(C)O)ccc34)C2)C1 (stereo partly drawn) [Example 375, N-((aR)-6-((3-carbamoylpyridin-2-yl)oxy)spiro[3.3]heptan-2-yl)-6-(2-hydroxy-2-methylpropoxy)-[1,2,3]triazolo[1,5-a]pyridine-3-carboxamide]"
9,5 to 50 nM,"[H][C@]1(Oc2ncccc2C(N)=O)C[C@@]2(C[C@H](NC(=O)c3cc(C4CC4)n4c(Cl)c(OCc5ccccc5)ccc34)C2)C1 (stereo partly drawn) [Example 376, 6-(benzyloxy)-N-((aR)-6-((3-carbamoylpyridin-2-yl)oxy)spiro[3.3]heptan-2-yl)-5-chloro-3-cyclopropylindolizine-1-carboxamide]"
10,5 to 50 nM,[H][C@]1(Oc2ncccc2C(N)=O)C[C@@]2(C[C@H](NC(=O)c3cnn(-c4ccc(Br)cc4)c3C)C2)C1 (stereo partly drawn) [Example 377]
11,50 to 250 nM,[H][C@]1(Oc2ncccc2C(N)=O)C[C@@]2(C[C@H](NC(=O)c3cnn(-c4ccc(N5CCOCC5)cc4)c3C)C2)C1 (stereo partly drawn) [Example 378]
12,50 to 250 nM,[H][C@]1(Oc2ncccc2C(N)=O)C[C@@]2(C[C@H](NC(=O)c3cnn(-c4ccccc4)c3C)C2)C1 (stereo partly drawn) [Example 379]
